The target in the data set is HIF1A. Briefly: HeLa, 100 nM transfected, 24 h, mean of 3. The following applies: ASO.

Bases are written 5' to 3'; sugars and linkages follow in the same order, as letters with counts (s phosphorothioate, o phosphodiester; PS: all linkages phosphorothioate). C may stand for cytosine or 5-methylcytosine; the collection does not tell. l = locked nucleic acid (LNA); d = 2'-deoxy (DNA)

On to GTTACTGCCTTCTTAC (sugars l2 d11 l3, PS), for which the caspase activation (% of PBS control) turned out to be 122.
As to “GTTACTGCCTTCTTAC (sugars lldldddddddlddll, PS)”, the caspase activation (% of PBS control) came out at 161.
In the case of “GTTACTGCCTTCT (sugars l1 d1 l1 d7 l3, PS)”, the caspase activation (% of PBS control) turned out to be 170.
As for “GTTACTGCCTTCTTAC (sugars l4 d7 l1 d2 l2, PS)”, the figure is 255; as for GGCAAGCATCCTG (sugars l3 d8 l2, PS), 642.
Take TGGCAAGCATCCT (sugars l2 d10 l1, PS): the caspase activation (% of PBS control) came to 364.
“GTTACTGCCTTCTTAC (sugars l1 d1 l1 d12 l1, PS)” displayed a caspase activation (% of PBS control) of 103.
As to “TGGCAAGCATCCTGTA (sugars llddldddddddlldl, PS)”, the caspase activation (% of PBS control) stood at 341.
With GTTACTGCCTTCTTAC (sugars l2 d13 l1, PS), the caspase activation (% of PBS control) came out at 102.
Turning to “GTTACTGCCTTCTTAC (sugars lldllddddddllldl, PS)”, the caspase activation (% of PBS control) stood at 506.
Sequence TGGCAAGCATCCT (sugars l4 d8 l1, PS) returned a caspase activation (% of PBS control) of 471.
As for “TGGCAAGCATCCTGTA (sugars lllllddddddldldl, PS)”, the figure is 373; as for TACTGCCTTCTTA (sugars l1 d9 l3, PS), 158; as for “GTTACTGCCTTCTTAC (sugars l1 d1 l3 d6 l5, PS)”, 616.
The value for “TGGCAAGCATCCTGTA (sugars lllldddddddldldl, PS)” was 372.
The sequence GGCAAGCATCCTG (sugars l1 d11 l1, PS) displayed a caspase activation (% of PBS control) of 316.
The value for CAAGCATCCTGTA (sugars l3 d8 l2, PS) was 302.
The sequence TGGCAAGCATCCTGTA (sugars l5 d6 l5, PS) showed a caspase activation (% of PBS control) of 445.
In turn, “TGGCAAGCATCCTGTA (sugars l4 d8 l1 d2 l1, PS)” gave a caspase activation (% of PBS control) of 429.
“CAAGCATCCTGTA (sugars l3 d7 l1 d1 l1, PS)” registered a caspase activation (% of PBS control) of 302.
With “TGGCAAGCATCCTGTA (sugars lldldddddddldldl, PS)”, the caspase activation (% of PBS control) stood at 429.
For the sequence “GTTACTGCCTTCTTAC (sugars l4 d7 l1 d1 l3, PS)”, the caspase activation (% of PBS control) turned out to be 253.
GTTACTGCCTTCTTAC (sugars l1 d13 l2, PS) came in with a caspase activation (% of PBS control) of 87.3.
The value for GTTACTGCCTTCT (sugars l4 d6 l3, PS) was 356.
In the case of “TGGCAAGCATCCTGTA (sugars l1 d10 l1 d3 l1, PS)”, the caspase activation (% of PBS control) was found to be 199.
In turn, “TGGCAAGCATCCTGTA (sugars lldldddddddllldl, PS)” came in with a caspase activation (% of PBS control) of 419.
With “TGGCAAGCATCCTGTA (sugars ldldlddddddddddl, PS)”, the caspase activation (% of PBS control) turned out to be 204.
Sequence “TGGCAAGCATCCTGTA (sugars ldldlddddddddlll, PS)” showed a caspase activation (% of PBS control) of 277.
TTACTGCCTTCTT (sugars l3 d7 l3, PS) registered a caspase activation (% of PBS control) of 291.
For the sequence “GTTACTGCCTTCTTAC (sugars ldllddddddddlddl, PS)”, the caspase activation (% of PBS control) is 183.
Consider “TGGCAAGCATCCTGTA (sugars l5 d7 l1 d2 l1, PS)”, for which the caspase activation (% of PBS control) came out at 386.
For the sequence “GTTACTGCCTTCT (sugars lldlddddddldl, PS)”, the caspase activation (% of PBS control) amounted to 105.
“ACTGCCTTCTTAC (sugars l1 d1 l2 d7 l2, PS)” came in with a caspase activation (% of PBS control) of 217.
As for “GTTACTGCCTTCTTAC (sugars ldlldddddddllddl, PS)”, the figure is 255; as for “TGGCAAGCATCCTGTA (sugars l1 d2 l2 d10 l1, PS)”, 367; as for GCAAGCATCCTGT (sugars l4 d8 l1, PS), 344.
As for “GTTACTGCCTTCTTAC (sugars lddllddddddldldl, PS)”, the figure is 207; as for GGCAAGCATCCTG (sugars l1 d9 l3, PS), 468.
Sequence “GTTACTGCCTTCTTAC (sugars l1 d2 l2 d7 l4, PS)” displayed a caspase activation (% of PBS control) of 361.
The sequence “TGGCAAGCATCCTGTA (sugars l2 d1 l1 d8 l4, PS)” came in with a caspase activation (% of PBS control) of 393.
For the sequence “GTTACTGCCTTCTTAC (sugars l2 d9 l2 d1 l2, PS)”, the caspase activation (% of PBS control) is 223.
The value for GCAAGCATCCTGT (sugars l1 d9 l3, PS) was 147.
With “GGCAAGCATCCTG (sugars l2 d8 l1 d1 l1, PS)”, the caspase activation (% of PBS control) was found to be 327.
As for “GTTACTGCCTTCTTAC (sugars ldldldddddddlldl, PS)”, the caspase activation (% of PBS control) worked out at 280.
Consider “ACTGCCTTCTTAC (sugars l1 d1 l1 d7 l3, PS)”, for which the caspase activation (% of PBS control) was 257.
Sequence “GTTACTGCCTTCTTAC (sugars l1 d2 l2 d6 l5, PS)” gave a caspase activation (% of PBS control) of 485.
“GTTACTGCCTTCTTAC (sugars l1 d2 l1 d11 l1, PS)” returned a caspase activation (% of PBS control) of 91.7.
In turn, “GCAAGCATCCTGT (sugars l3 d7 l1 d1 l1, PS)” had a caspase activation (% of PBS control) of 426.
The value for “TGGCAAGCATCCTGTA (sugars ldllldddddddldll, PS)” was 459; that for “GTTACTGCCTTCTTAC (sugars l4 d7 l1 d3 l1, PS)” was 250; that for “TGGCAAGCATCCTGTA (sugars l1 d2 l2 d8 l3, PS)” was 419.
The value for “TACTGCCTTCTTA (sugars l2 d1 l1 d7 l2, PS)” was 295; that for “TGGCAAGCATCCTGTA (sugars lddllddddddlldll, PS)” was 388; that for “TGGCAAGCATCCTGTA (sugars ldddldddddddldll, PS)” was 245.
Consider “TGGCAAGCATCCTGTA (sugars l4 d7 l2 d1 l2, PS)”, for which the caspase activation (% of PBS control) turned out to be 572.
For the sequence “TGGCAAGCATCCTGTA (sugars lddldddddddldlll, PS)”, the caspase activation (% of PBS control) is 303.
In turn, “GTTACTGCCTTCTTAC (sugars ldlldddddddlddll, PS)” gave a caspase activation (% of PBS control) of 191.
The value for GCAAGCATCCTGT (sugars l2 d10 l1, PS) was 279.
The value for “CAAGCATCCTGTA (sugars l1 d1 l2 d6 l3, PS)” was 134; that for “GTTACTGCCTTCTTAC (sugars llldlddddddldldl, PS)” was 316.
The value for “GTTACTGCCTTCTTAC (sugars l3 d10 l1 d1 l1, PS)” was 161.
The sequence GTTACTGCCTTCT (sugars l4 d8 l1, PS) showed a caspase activation (% of PBS control) of 142.
As for “TGGCAAGCATCCTGTA (sugars l1 d1 l1 d8 l5, PS)”, the figure is 417; as for “TGGCAAGCATCCTGTA (sugars llddlddddddldddl, PS)”, 383.
As to “GTTACTGCCTTCTTAC (sugars l4 d8 l1 d1 l2, PS)”, the caspase activation (% of PBS control) was 218.
“GTTACTGCCTTCTTAC (sugars ldldddddddddlldl, PS)” returned a caspase activation (% of PBS control) of 165.
As to TACTGCCTTCTTA (sugars l3 d8 l2, PS), the caspase activation (% of PBS control) is 317.
In turn, CAAGCATCCTGTA (sugars l2 d8 l3, PS) yielded a caspase activation (% of PBS control) of 250.
Take “TGGCAAGCATCCTGTA (sugars l4 d8 l1 d1 l2, PS)”: the caspase activation (% of PBS control) stood at 385.
As for GGCAAGCATCCTG (sugars l1 d10 l2, PS), the caspase activation (% of PBS control) is 394.
Regarding “TGGCAAGCATCCTGTA (sugars llddlddddddllldl, PS)”, the caspase activation (% of PBS control) turned out to be 397.
In turn, “GTTACTGCCTTCTTAC (sugars l2 d1 l1 d9 l3, PS)” gave a caspase activation (% of PBS control) of 130.
“GTTACTGCCTTCTTAC (sugars llddldddddddlldl, PS)” came in with a caspase activation (% of PBS control) of 330.
In turn, “GTTACTGCCTTCTTAC (sugars l1 d1 l2 d7 l5, PS)” gave a caspase activation (% of PBS control) of 361.
The value for GTTACTGCCTTCTTAC (sugars l5 d7 l4, PS) was 574; that for GGCAAGCATCCTG (sugars l2 d9 l2, PS) was 554; that for “GTTACTGCCTTCTTAC (sugars lldldddddddllldl, PS)” was 307.
“TGGCAAGCATCCTGTA (sugars l1 d3 l1 d9 l2, PS)” came in with a caspase activation (% of PBS control) of 135.
Turning to “TGGCAAGCATCCTGTA (sugars ldldddddddddlldl, PS)”, the caspase activation (% of PBS control) is 281.
In turn, CAAGCATCCTGTA (sugars l3 d9 l1, PS) had a caspase activation (% of PBS control) of 237.
On to “TGGCAAGCATCCT (sugars l1 d2 l1 d6 l3, PS)”, for which the caspase activation (% of PBS control) amounted to 112.
Sequence “GGCAAGCATCCTG (sugars l1 d9 l1 d1 l1, PS)” had a caspase activation (% of PBS control) of 390.
As for “TGGCAAGCATCCTGTA (sugars l2 d2 l1 d7 l4, PS)”, the figure is 366; as for “CAAGCATCCTGTA (sugars l1 d1 l2 d7 l2, PS)”, 151; as for “TGGCAAGCATCCTGTA (sugars llddlddddddldldl, PS)”, 390.
Sequence “TGGCAAGCATCCTGTA (sugars l3 d10 l1 d1 l1, PS)” came in with a caspase activation (% of PBS control) of 251.
The value for “GGCAAGCATCCTG (sugars l1 d1 l1 d9 l1, PS)” was 339; that for “CAAGCATCCTGTA (sugars l2 d1 l1 d7 l2, PS)” was 133.
The sequence “GTTACTGCCTTCTTAC (sugars llldldddddddldll, PS)” yielded a caspase activation (% of PBS control) of 274.
The sequence “GTTACTGCCTTCT (sugars l2 d8 l1 d1 l1, PS)” gave a caspase activation (% of PBS control) of 98.3.
